The test has as its target T1, EZH2 within the PRC2 complex (Homo sapiens, UniProt Q15910).
T1 construct: FLAG; made in house; host or cells: Sf9 cells
Nature of the test: EZH2 methyltransferase scintillation proximity assay (SPA), PRC2 complex. The format is biochemical. To be noted: inhibition of methyltransferase activity, 3H-SAM, HeLa mononucleosome substrate, foregoing or an analogous assay. (In general: In a scintillation proximity assay essentially only radioactivity close to the scintillant gives light.)

A word on the IC50: it is the concentration that gives 50% inhibition. Higher therefore signals weaker potency in that assay.

T1 sequence (Q15910 whole entry): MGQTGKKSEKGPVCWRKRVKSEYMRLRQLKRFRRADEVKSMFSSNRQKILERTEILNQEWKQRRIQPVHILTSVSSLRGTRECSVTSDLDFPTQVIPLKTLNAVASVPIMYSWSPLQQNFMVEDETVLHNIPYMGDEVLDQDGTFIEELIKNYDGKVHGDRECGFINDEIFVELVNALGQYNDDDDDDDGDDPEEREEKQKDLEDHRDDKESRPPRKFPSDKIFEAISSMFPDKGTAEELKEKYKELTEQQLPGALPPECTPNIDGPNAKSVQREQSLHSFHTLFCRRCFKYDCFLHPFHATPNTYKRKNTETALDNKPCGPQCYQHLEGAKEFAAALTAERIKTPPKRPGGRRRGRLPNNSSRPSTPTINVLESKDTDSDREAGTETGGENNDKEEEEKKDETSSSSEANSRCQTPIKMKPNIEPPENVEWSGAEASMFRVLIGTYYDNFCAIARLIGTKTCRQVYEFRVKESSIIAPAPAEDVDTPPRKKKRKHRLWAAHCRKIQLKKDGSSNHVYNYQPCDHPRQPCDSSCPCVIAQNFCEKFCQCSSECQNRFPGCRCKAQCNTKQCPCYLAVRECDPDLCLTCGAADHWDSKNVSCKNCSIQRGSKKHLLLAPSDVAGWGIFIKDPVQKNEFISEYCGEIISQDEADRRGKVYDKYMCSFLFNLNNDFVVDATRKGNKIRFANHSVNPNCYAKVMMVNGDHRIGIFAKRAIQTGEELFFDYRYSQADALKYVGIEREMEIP
T1 sequence (O75530 whole entry partner): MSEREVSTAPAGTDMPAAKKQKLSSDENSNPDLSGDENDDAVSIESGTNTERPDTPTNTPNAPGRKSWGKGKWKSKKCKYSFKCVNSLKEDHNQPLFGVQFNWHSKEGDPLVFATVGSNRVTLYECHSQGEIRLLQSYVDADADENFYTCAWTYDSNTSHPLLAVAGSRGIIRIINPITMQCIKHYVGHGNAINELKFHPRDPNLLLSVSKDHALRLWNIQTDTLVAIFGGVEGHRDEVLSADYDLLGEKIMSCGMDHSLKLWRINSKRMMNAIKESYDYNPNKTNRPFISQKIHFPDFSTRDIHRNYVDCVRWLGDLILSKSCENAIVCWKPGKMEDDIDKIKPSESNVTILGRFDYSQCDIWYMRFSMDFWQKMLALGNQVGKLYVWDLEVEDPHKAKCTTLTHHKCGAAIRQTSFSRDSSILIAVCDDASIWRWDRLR
T1 sequence (Q15022 whole entry partner): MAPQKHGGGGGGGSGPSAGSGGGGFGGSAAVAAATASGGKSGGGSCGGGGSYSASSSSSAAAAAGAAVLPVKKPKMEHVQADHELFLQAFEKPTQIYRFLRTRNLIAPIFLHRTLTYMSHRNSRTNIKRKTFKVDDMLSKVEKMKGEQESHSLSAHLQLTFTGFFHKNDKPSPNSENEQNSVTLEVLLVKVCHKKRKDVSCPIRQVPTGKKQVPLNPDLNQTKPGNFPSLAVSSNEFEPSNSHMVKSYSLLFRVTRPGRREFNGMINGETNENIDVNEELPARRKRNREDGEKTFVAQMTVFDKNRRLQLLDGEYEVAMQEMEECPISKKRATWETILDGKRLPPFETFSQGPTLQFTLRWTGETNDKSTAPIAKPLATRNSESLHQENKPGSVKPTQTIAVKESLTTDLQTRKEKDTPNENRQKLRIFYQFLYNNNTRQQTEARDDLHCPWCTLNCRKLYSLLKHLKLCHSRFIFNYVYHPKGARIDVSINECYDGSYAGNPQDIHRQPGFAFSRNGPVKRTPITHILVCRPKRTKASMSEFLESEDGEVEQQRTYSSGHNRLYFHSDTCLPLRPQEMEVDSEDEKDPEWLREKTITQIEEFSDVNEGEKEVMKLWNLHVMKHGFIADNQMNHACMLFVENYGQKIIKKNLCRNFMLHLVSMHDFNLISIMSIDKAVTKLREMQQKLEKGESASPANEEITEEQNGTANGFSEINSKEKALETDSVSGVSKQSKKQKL
T1 sequence (Q09028 whole entry partner): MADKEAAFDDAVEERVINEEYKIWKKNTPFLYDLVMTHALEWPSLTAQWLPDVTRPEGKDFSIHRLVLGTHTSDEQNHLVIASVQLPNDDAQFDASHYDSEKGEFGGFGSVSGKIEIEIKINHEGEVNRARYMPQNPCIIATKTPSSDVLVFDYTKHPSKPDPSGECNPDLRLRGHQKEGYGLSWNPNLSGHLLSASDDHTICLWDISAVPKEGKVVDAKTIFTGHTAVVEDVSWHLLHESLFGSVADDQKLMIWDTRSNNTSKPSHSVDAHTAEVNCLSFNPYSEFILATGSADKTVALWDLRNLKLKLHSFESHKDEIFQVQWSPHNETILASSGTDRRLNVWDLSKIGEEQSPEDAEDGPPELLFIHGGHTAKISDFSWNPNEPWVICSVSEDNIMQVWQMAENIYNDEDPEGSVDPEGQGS
T1 sequence (Q6ZN18 whole entry partner): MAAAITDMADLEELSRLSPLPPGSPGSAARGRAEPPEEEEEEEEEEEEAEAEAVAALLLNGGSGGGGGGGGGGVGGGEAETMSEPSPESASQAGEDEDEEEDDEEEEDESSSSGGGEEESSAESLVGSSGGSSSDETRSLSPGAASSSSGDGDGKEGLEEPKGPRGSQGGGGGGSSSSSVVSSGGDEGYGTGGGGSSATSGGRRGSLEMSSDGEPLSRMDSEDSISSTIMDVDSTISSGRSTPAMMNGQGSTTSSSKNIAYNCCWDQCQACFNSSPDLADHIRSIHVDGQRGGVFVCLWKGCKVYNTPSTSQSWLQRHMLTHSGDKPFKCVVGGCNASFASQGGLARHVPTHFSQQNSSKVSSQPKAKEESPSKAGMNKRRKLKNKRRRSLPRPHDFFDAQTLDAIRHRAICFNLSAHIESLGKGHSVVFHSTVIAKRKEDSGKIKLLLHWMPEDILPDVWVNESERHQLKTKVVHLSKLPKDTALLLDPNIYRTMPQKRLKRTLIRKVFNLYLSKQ
Description: Compounds contained herein were evaluated for their ability to inhibit the methyltransferase activity of EZH2 within the PRC2 complex. Human PRC2 complex was prepared by co-expressing each of the 5 member proteins (FLAG-EZH2, EED, SUZ12, RbAp48, AEBP2) in Sf9 cells followed by co-purification. Enzyme activity was measured in a scintillation proximity assay (SPA) where a tritiated methyl group is transferred from 3H-SAM to a lysine residue on Histone H3 of a mononucleosome, purified from HeLa cells. Mononucleosomes were captured on SPA beads and the resulting signal is read on a ViewLux plate reader.
Part A. Compound Preparation
Prepare 10 mM stock of compounds from solid in 100% DMSO. • 2. Set up an 11-point serial dilution (1:3 dilution, top concentration 10 mM) in 100% DMSO for each test compound in a 384 well plate leaving columns 6 and 18 for DMSO controls. • 3. Dispense 100 nL of compound from the dilution plate into reaction plates (Grenier Bio-One, 384-well, Cat#784075). Part B. Reagent Preparation Prepare the following solutions: • 1. […] Read plates • 1. Read the assay plates on the Viewlux Plate Reader utilizing the 613 nm emission filter with a 300 s read time. […]
Percent inhibition was calculated relative to the DMSO control for each compound concentration and the resulting values were fit using standard IC50 fitting parameters within the ABASE data fitting software package.

The substance “6-{[4-(Aminocarbonyl)phenyl]amino}-N-[(4,6-dimethyl-2-oxo-1,2-dihydro-3-pyridinyl)methyl]-1-(1-methylethyl)-1H-pyrazolo[3,4-b]pyridine-4-carboxamide [Ex 86]” had an IC50 of 142 nM.
Next, “N-[(4,6-Dimethyl-2-oxo-1,2-dihydro-3-pyridinyl)methyl]-1-(1-methylethyl)-6-(2-phenylethyl)-1H-pyrazolo[3,4-b]pyridine-4-carboxamide [Ex 32]”: 856 nM.
